Data taken from patent US9060946B2, “Topical skin care formulations” (priority 2013, dated 2015).

Experiments:
[1] = background; without the whiteness-preserving ingredients; cited from earlier work
skin [2] = settings: known sunless tanning ingredients; acts on dead skin cells; cited from earlier work
skin [3] = assay: Tanning of the skin after topical application; type: in vivo
Excerpt: The tan will appear once it reaches the skin's cellular level whether a person is in the light or in total darkness.
The tanning process will continue, in the sun, in the shade, or total darkness, regardless of the environmental conditions. […] Also, the tan can be maintained for longer periods of time by daily use of a maintenance formula containing 3 wt % CoQ10 and 3 wt % vanillin in a lime emulsion.

SMILES	color behaviour in aqueous emulsion products [1]	how long the tan color lasts (skin [2])	tanning / color development continues for up to (skin [3])
COC1=C(OC)C(=O)C(C/C=C(\C)CC/C=C(\C)CC/C=C(\C)CC/C=C(\C)CC/C=C(\C)CC/C=C(\C)CC/C=C(\C)CC/C=C(\C)CC/C=C(\C)CCC=C(C)C)=C(C)C1=O [CoQ10, coenzyme Q10]	degrades the formulation into various shades of orange or brown	–	–
O=C(CO)[C@H](O)CO [erythrulose, D-erythrulose]	–	only a few days	–
COc1cc(C=O)ccc1O [vanillin]	quickly degrades into various shades of brown	–	up to 24 hours
